Like-named read-outs stand apart in the source and are kept apart here.
Target: T1, bacterial NAD synthetase enzyme (Bacillus subtilis, UniProt P08164)
T1 sequence (P08164 2-272 limits assumed): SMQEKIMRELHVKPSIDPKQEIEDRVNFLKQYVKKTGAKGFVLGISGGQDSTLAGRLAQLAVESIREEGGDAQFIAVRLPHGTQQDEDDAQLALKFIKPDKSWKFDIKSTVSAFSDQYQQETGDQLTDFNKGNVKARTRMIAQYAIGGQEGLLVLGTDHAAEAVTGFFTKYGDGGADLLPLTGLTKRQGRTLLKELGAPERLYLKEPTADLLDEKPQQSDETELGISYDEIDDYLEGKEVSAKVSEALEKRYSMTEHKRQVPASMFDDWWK
Assay: biochemical
Assay type: biochemical

[1] = compound at 0.2 mM (Table 312A)
[2] = compound at 0.2 mM (Table 312B)

CN(C)c1ccc(CC(=O)OCCCCCn2ccc3cc([N+](=O)[O-])ccc32)cc1 [Compound 849]
% Inhibition (compound at 0.1 mM (Table 314)): 90.92% | IC50 (lead compounds (Table 318A), read-out: IC 50): 70 µM

CC(C)c1ccc2[nH]c(CCCCOC(=O)c3ccc([N+](C)(C)C)cc3)cc2c1 [Compound 889]
IC50: 75 µM | inhibition at 100 µM: 93.6%

O=[N+]([O-])c1cc([N+](=O)[O-])c2[nH]c(CCCCCC[n+]3ccc4ccccc4c3)cc2c1 [Compound 525]
% Inhibition [1]: 8.39%

COC(=O)c1cc2ccccc2n1CCCCCCCOC(=O)c1ccc[n+](C)c1 [Compound 972]
IC50: 40 µM | inhibition at 100 µM: 96.8%

C[n+]1cccc(CC(=O)OCCCCCCCCc2cc3cc(C(=O)c4ccccc4)ccc3[nH]2)c1 [Compound 942]
IC50: 75 µM | inhibition at 100 µM: 97.8%

c1ccc2c[n+](CCCCc3cc4ccccc4[nH]3)ccc2c1 [Compound 499]
% Inhibition [1]: 25.59%

CC(C)c1ccc2[nH]c(CCC[n+]3ccc4ccccc4c3)cc2c1 [Compound 534]
% Inhibition [1]: 26.99%

COC(=O)c1cc2cc(OCc3ccccc3)ccc2n1CCCCCCOC(=O)c1ccc[n+](C)c1 [Compound 975]
IC50: 38 µM | inhibition at 100 µM: 55.2%

O=[N+]([O-])c1cc([N+](=O)[O-])c2[nH]c(CCCCCCC[n+]3ccccc3)cc2c1 [Compound 310]
% Inhibition [1]: 38.29%

O=C(c1ccccc1)c1ccc2[nH]c(CCCCCCC[n+]3cccc4ccccc43)cc2c1 [Compound 466]
% Inhibition [1]: 5.79%

c1ccc(Oc2ccc3[nH]c(CCCCCC[n+]4ccc5ccccc5c4)cc3c2)cc1 [Compound 567]
% Inhibition [1]: 22.51%

C[N+](C)(C)c1ccc(CC(=O)OCCCCCCCCCn2ccc3ccccc32)cc1 [Compound 982]
IC50: 60 µM | inhibition at 200 µM: 93.7%

C[n+]1cccc(C(=O)OCCCCCCCCOc2ccc([N+](=O)[O-])cc2)c1 [compound 1053]
% Inhibition [2]: 72%

CCCCc1ccc2[nH]c(CCCCCCCC[n+]3ccccc3)cc2c1 [Compound 317]
% Inhibition (compound at 0.1 mM (Table 314)): 25.04%

O=C(OCCCCCCCCOc1ccccc1N1CCCC1)c1cccnc1 [Compound 1019]
% Inhibition [2]: 3%

CN(C)c1ccc(CC(=O)OCCCCCCCCOc2ccccc2C(N)=O)cc1 [Compound 1031]
IC50: 36.3 µM | inhibition at 200 µM: 23%

COc1ccc2c(ccn2CCCCCOC(=O)Cc2ccc([N+](C)(C)C)cc2)c1 [Compound 741]
% Inhibition [1]: 30.47%

COc1cccc(OCCCCCCCCOC(=O)Cc2ccc([N+](C)(C)C)cc2)c1 [Compound 1077]
% Inhibition [2]: 73%

CC(=O)c1ccc2[nH]c(CCC[n+]3ccc4ccccc4c3)cc2c1 [Compound 582]
% Inhibition [1]: 6.13%

CCCCc1ccc2[nH]c(CCCCCCCC[n+]3cccc4ccccc43)cc2c1 [Compound 425]
% Inhibition [1]: 19.12%

C[N+](C)(C)c1ccc(CC(=O)OCCCCCCCCOc2cccc(OC(=O)c3ccccc3)c2)cc1 [Compound 1079]
IC50: 36.2 µM | inhibition at 200 µM: 97%

CC(=O)Oc1cccc(OCCCCCCCCOC(=O)Cc2ccc(N(C)C)cc2)c1 [Compound 1027]
% Inhibition [2]: 2%

COC(=O)c1cc2cc(OCc3ccccc3)ccc2n1CCCCCCCOC(=O)Cc1ccc([N+](C)(C)C)cc1 [compound 1105]
% Inhibition [2]: 167%

C[n+]1cccc(CC(=O)OCCCCc2cc3cc(Oc4ccccc4)ccc3[nH]2)c1 [Compound 931]
% Inhibition (compound at 0.25 mM): 15.8%

CC(=O)c1ccc2[nH]c(CCCCCCCOC(=O)Cc3ccc[n+](C)c3)cc2c1 [Compound 938]
% Inhibition (compound at 0.25 mM): 98.8%

C[N+](C)(C)c1ccc(C(=O)OCCCCCCCCc2cc3ccc(C(F)(F)F)cc3[nH]2)cc1 [Compound 885]
% Inhibition (compound at 0.25 mM): 98.0%

COc1ccc2[nH]c(CCC[n+]3ccc4ccccc4c3)cc2c1 [Compound 588]
% Inhibition [1]: 2.49%

O=C(c1ccccc1)c1ccc2[nH]c(CCCCCCC[n+]3ccc4ccccc4c3)cc2c1 [Compound 574]
% Inhibition [1]: 11.95%

O=[N+]([O-])c1ccc2[nH]c(CCC[n+]3ccccc3)cc2c1 [Compound 330]
% Inhibition [1]: 23.96%

CCCCc1oc2ccccc2c1C(=O)c1ccc(OCCCCCCCCOC(=O)Cc2ccc([N+](C)(C)C)cc2)cc1 [Compound 1084]
IC50 (NAD synthetase enzyme inhibition, read-out: IC50 of Compounds): 12.5 µM | % Inhibition [2]: 106%

C[n+]1cccc(C(=O)OCCCOc2ccc(C(=O)c3ccccc3)cc2)c1 [Compound 1068]
IC50: 62.5 µM | inhibition at 200 µM: 92%

CC(=O)c1ccc2[nH]c(CCCCOC(=O)c3cc[n+](C)cc3)cc2c1 [Compound 907]
% Inhibition (compound at 0.25 mM): 20.6%

COc1ccccc1OCCCCCCCCOC(=O)c1cccnc1 [Compound 1012]
% Inhibition [2]: 2%

c1ccc2[nH]c(CCCCCCCC[n+]3cccc4ccccc43)cc2c1 [Compound 395]
% Inhibition (compound at 0.1 mM (Table 314)): 20.85%

COc1ccccc1OCCCCCCCCOC(=O)Cc1ccc(N(C)C)cc1 [Compound 1039]
% Inhibition [2]: 30%

O=C(O)/C=C/c1cn(CCCC[n+]2cccc3ccccc32)c2ccccc12 [Compound 154]
% Inhibition (compound at 0.1 mM (Table 314)): 9.24%

C[N+](C)(C)c1cccc(C(=O)OCCCCCCCc2cc3ccc(C(F)(F)F)cc3[nH]2)c1 [Compound 869]
IC50: 40 µM

O=C(OCCCCCCCCOc1ccccc1N1CCOCC1)c1cccnc1 [Compound 1020]
% Inhibition [2]: 8%

O=C(OCCCCCCCCOc1ccc(Oc2ccccc2)cc1)c1cccnc1 [Compound 1016]
% Inhibition [2]: 29%

Fc1cc(F)c2[nH]c(CCC[n+]3ccc4ccccc4c3)cc2c1 [Compound 516]
% Inhibition [1]: 29.95%

C[n+]1cccc(C(=O)OCCCCCCCCOc2ccccc2[N+](=O)[O-])c1 [compound 1055]
% Inhibition [2]: 46%

COc1ccc2[nH]c(CCCCCCC[n+]3ccccc3)cc2c1 [Compound 376]
% Inhibition (compound at 0.1 mM (Table 314)): 37.32%

Cc1ccc2[nH]c(CCC[n+]3cccc4ccccc43)cc2c1 [Compound 402]
% Inhibition (compound at 0.1 mM (Table 314)): 4.71%

Fc1ccc2[nH]c(CCCC[n+]3ccccc3)cc2c1 [Compound 343]
% Inhibition [1]: 10.82%

Fc1cc(F)c2[nH]c(CCCCCCCC[n+]3ccc4ccccc4c3)cc2c1 [Compound 521]
% Inhibition [1]: 29.59%

CC(C)c1ccc2[nH]c(CCCCCCCOC(=O)c3cccc([N+](C)(C)C)c3)cc2c1 [Compound 875]
IC50: 45 µM | inhibition at 100 µM: 93.6%

O=[N+]([O-])c1cc([N+](=O)[O-])c2[nH]c(CCCC[n+]3ccc4ccccc4c3)cc2c1 [Compound 523]
% Inhibition [1]: 18.12%

CN(C)c1ccc(CC(=O)OCCCCCCCCOc2cccc(N3CCOCC3)c2)cc1 [Compound 1045]
% Inhibition [2]: 14%

O=[N+]([O-])c1ccc2[nH]c(CCCCCC[n+]3cccc4ccccc43)cc2c1 [Compound 441]
% Inhibition [1]: 11.80%

C[N+](C)(C)c1ccc(CC(=O)OCCCCCCCCOc2ccc(C(=O)c3ccccc3)cc2)cc1 [Compound 1088]
% Inhibition [2]: 100%

CC(=O)c1ccc2[nH]c(CCCCCCCCOC(=O)c3cc[n+](C)cc3)cc2c1 [Compound 909]
IC50: 25 µM | inhibition at 100 µM: 97.2%

COC(=O)c1cc2ccccc2n1CCCCCCOC(=O)Cc1ccc([N+](C)(C)C)cc1 [Compound 983]
IC50: 25 µM | inhibition at 50 µM: 92.5%

C[N+](C)(C)c1ccc(CC(=O)OCCCCCCCCOc2ccc(Oc3ccccc3)cc2)cc1 [Compound 1090]
IC50: 21.2 µM | inhibition at 200 µM: 96%

C[n+]1cccc(C(=O)OCCCCCCCCn2ccc3cc([N+](=O)[O-])ccc32)c1 [Compound 867]
% Inhibition [1]: 70.33%

C[N+](C)(C)c1ccc(CC(=O)OCCCCCCCCOc2cccc(N3CCOCC3)c2)cc1 [Compound 1092]
% Inhibition [2]: 60%

COc1ccc2[nH]c(CCCCCCC[n+]3cccc4ccccc43)cc2c1 [Compound 484]
% Inhibition [1]: 39.95%

c1ccc(-c2ccc3[nH]c(CCCCCC[n+]4cccc5ccccc54)cc3c2)cc1 [Compound 435]
% Inhibition [1]: 17.24%

c1cc[n+](CCCCCCCCc2cc3ccccc3[nH]2)cc1 [Compound 287]
% Inhibition [1]: 16.01%

c1ccc(-c2ccc3[nH]c(CCCCCCCC[n+]4ccccc4)cc3c2)cc1 [Compound 329]
% Inhibition [1]: 30.77%

O=C(O)c1ccc2[nH]c(CCCCCCCC[n+]3cccc4ccccc43)cc2c1 [Compound 497]
% Inhibition [1]: 29.10%

O=[N+]([O-])c1cc([N+](=O)[O-])c2[nH]c(CCCCCCCC[n+]3ccccc3)cc2c1 [Compound 311]
% Inhibition [1]: 29.67%

COC(=O)c1ccc2[nH]c(CCCC[n+]3ccccc3)cc2c1 [Compound 379]
% Inhibition [1]: 6.27%

C[N+](C)(C)c1cccc(C(=O)OCCCCc2cc3cc(C(=O)c4ccccc4)ccc3[nH]2)c1 [Compound 880]
% Inhibition (compound at 0.25 mM): 96.7%

C[N+](C)(C)c1cccc(C(=O)OCCCCCCCCc2cc3cc(Oc4ccccc4)ccc3[nH]2)c1 [Compound 873]
% Inhibition (compound at 0.25 mM): 98.0%

C[N+](C)(C)c1ccc(CC(=O)OCCCCCCCCOc2ccc(OC(=O)c3ccccc3)cc2)cc1 [Compound 1082]
IC50: 50 µM | inhibition at 200 µM: 81%

c1ccc2c[n+](CCCc3cc4ccccc4[nH]3)ccc2c1 [Compound 498]
% Inhibition [1]: 47.31%

CC(C)c1ccc2[nH]c(CCCCCCC[n+]3ccccc3)cc2c1 [Compound 322]
% Inhibition [1]: 14.40%

O=[N+]([O-])c1cc([N+](=O)[O-])c2[nH]c(CCC[n+]3cccc4ccccc43)cc2c1 [Compound 414]
% Inhibition [1]: 6.91%

CC(C)c1ccc2[nH]c(CCCC[n+]3ccccc3)cc2c1 [Compound 319]
% Inhibition (compound at 0.1 mM (Table 314)): 16.99%

O=C(c1ccccc1)c1ccc2[nH]c(CCCCCCC[n+]3ccccc3)cc2c1 [Compound 358]
% Inhibition [1]: 23.19%

c1ccc2c[n+](CCCCCCCc3cc4ccccc4[nH]3)ccc2c1 [Compound 502]
% Inhibition [1]: 44.08%

From patent US6727237B2, “Inhibitors of bacterial NAD synthetase” (priority 1998, dated 2004)
